Patent US10738028B2, “Spiro three-membered ring, spiro five-membered ring peptide deformylase inhibitor and use thereof in antibacteria and anti-tumor” (priority 2016, dated 2020)
≈ marks a conversion by molar mass, not a printed value.

Assays:
[1] = tested on: Enterococcus faecalis (EFA); experiment: MIC, two-fold agar dilution (CLSI), clinical isolates; format: cell-based
Method in brief: (§1)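 Susceptibility was tested using CLSI two-fold agar dilution against the strains examined.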

[2] = tested on: Escherichia coli (including ESBLs, non-ESBLs); experiment: as above; format: cell-based
Method in brief: as §1

[3] = tested on: methicillin-resistant Staphylococcus aureus (MRSA); experiment: as above; format: cell-based
Method in brief: as §1

[4] = tested on: methicillin-resistant Staphylococcus epidermidis (MRSE); experiment: as above; format: cell-based
Method in brief: as §1

[5] = tested on: methicillin-sensitive Staphylococcus aureus (MSSA); experiment: as above; format: cell-based
Method in brief: as §1

[6] = tested on: methicillin-sensitive Staphylococcus epidermidis (MSSE); experiment: as above; format: cell-based
Method in brief: as §1

[7] = tested on: HCT-116 colorectal cancer cell line; experiment: CCK-8 proliferation inhibition; format: cell-based; conditions: concentration of 30 μM, 72 hours, CCK-8; for inhibition at 30 µM: Homo sapiens, HCT-116, 72 h, read-out: HCT116 inhibition rate/%
Method in brief: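 Cells seeded at 2000 cells/well, cultured overnight at 37 °C, 5% CO2, then exposed to compound (DMSO; control 1‰ DMSO) for 72 h in McCoy's 5A with 10% newborn bovine serum. Viability read with 1:10 diluted CCK-8.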

[8] = tested on: methemoglobin in blood samples of three healthy volunteers; experiment: Toxicity on methemoglobin in vitro (whole blood with S9 and NADPH, absorbance at 630 nm); format: cell-based, human; conditions: 500 μM compound; whole blood + S9 + NADPH; 5 hours at 37° C.
Method in brief: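 Fresh EDTA whole blood from three healthy volunteers incubated 5 h at 37 °C with human liver S9 (2 mg/mL), NADPH-generating system and compound at 500 μM final. Lysed in 1% Triton X-100; MetHb % from 630 nm absorbance relative to ferricyanide-oxidized blood.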

the test strains = experiment: MIC against the test strains (strain not given); format: cell-based; conditions: read-out: MIC (azole amide bioisosteres)
Excerpt: 1. The invention adopts the two-fold agar dilution method recommended by the operating procedure of antimicrobial susceptibility testing set by American Clinical and Laboratory Standards Institute (CLSI) to determine the Minimum Inhibitory Concentration (MIC) of the test samples against the tested strains.

[9] = tested on: Enterococcus faecium (EFM); experiment: MIC, two-fold agar dilution (CLSI), clinical isolates; format: cell-based
Method in brief: as §1

[10] = tested on: Moraxella catarrhalis (BCA); experiment: as above; format: cell-based
Method in brief: as §1

[11] = tested on: Streptococcus pneoumoniae (SPN); experiment: as above; format: cell-based
Method in brief: as §1

[12] = tested on: A549 lung cancer cell line; experiment: CCK-8 proliferation inhibition; format: cell-based; conditions: Homo sapiens, A549, 72 h, concentration of 30 μM
Method in brief: (§2)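 Plating at 2000 cells/well, then incubation overnight at 37° C. Next, a range of compound concentrations for 72 hours (control 1‰ DMSO). Finally, medium decanted and CCK-8 diluted 1:10 added.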

[13] = tested on: BEL-7402 liver cancer cell line; experiment: CCK-8 proliferation inhibition; format: cell-based; conditions: concentration of 30 μM
Method in brief: as §2

[14] = tested on: MGC-803 gastric cancer cell line; experiment: CCK-8 proliferation inhibition; format: cell-based; conditions: concentration of 30 μM
Method in brief: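 Cells seeded at 2000 cells/well, cultured overnight at 37 °C, 5% CO2, then exposed 72 h to compound dilutions in medium with 10% newborn bovine serum (1‰ DMSO control). Viability read with 1:10 diluted CCK-8 solution. Media: PC3 in F12; MGC-803 and Jurkat in 1640; MCF-7 in DMEM high glucose.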

CCCC[C@H](CN(O)C=O)C(=O)N1CC2(CC2)C[C@H]1c1nnc(-c2ccccn2)o1 [Example 12, N-hydroxy-N—((R)-2-((S)-6-(5-(pyridin-2-yl)-1,3,4-oxadiazol-2-yl)-5-azaspiro[2.4]heptane-5-carbonyl)hexyl)carboxamide]
MIC (anti-bacterial activity) ([1]; strain EFA 14-1): 4 mg/L (≈ 9.67 µM)
MIC (anti-bacterial activity) ([1]; strain EFA 14-2): 8 mg/L (≈ 19.3 µM)
MIC (anti-bacterial activity) ([1]; strain EFA 14-3): 8 mg/L (≈ 19.3 µM)
MIC (anti-bacterial activity) ([1]; strain EFA 14-5): 8 mg/L (≈ 19.3 µM)
MIC (anti-bacterial activity) ([2]; strain ECO+ 14-1): 0.5 mg/L (≈ 1.21 µM)
MIC (anti-bacterial activity) ([2]; strain ECO+ 14-2): 64 mg/L (≈ 155 µM)
MIC (anti-bacterial activity) ([2]; strain ECO− 14-1): 128 mg/L (≈ 310 µM)
MIC (anti-bacterial activity) ([2]; strain ECO− 14-2): 64 mg/L (≈ 155 µM)
MIC (anti-bacterial activity) ([3]; strain MRSA 14-1): 4 mg/L (≈ 9.67 µM)
MIC (anti-bacterial activity) ([3]; strain MRSA 14-2): 4 mg/L (≈ 9.67 µM)
MIC (anti-bacterial activity) ([3]; strain MRSA 14-4): 4 mg/L (≈ 9.67 µM)
MIC (anti-bacterial activity) ([3]; strain MRSA 14-5): 2 mg/L (≈ 4.84 µM)
MIC (anti-bacterial activity) ([3]; strain printed MRSA 14-1 (second line of that name, r23, before MRSE 14-2)): 1 mg/L (≈ 2.42 µM)
MIC (anti-bacterial activity) ([4]; strain MRSE 14-2): 0.5 mg/L (≈ 1.21 µM)
MIC (anti-bacterial activity) ([4]; strain MRSE 14-3): 0.5 mg/L (≈ 1.21 µM)
MIC (anti-bacterial activity) ([4]; strain MRSE 14-4): 4 mg/L (≈ 9.67 µM)
MIC (anti-bacterial activity) ([5]; strain MSSA 14-1): 4 mg/L (≈ 9.67 µM)
MIC (anti-bacterial activity) ([5]; strain MSSA 14-2): 2 mg/L (≈ 4.84 µM)
MIC (anti-bacterial activity) ([5]; strain MSSA 14-3): 2 mg/L (≈ 4.84 µM)
MIC (anti-bacterial activity) ([5]; strain MSSA 14-4): 2 mg/L (≈ 4.84 µM)
MIC (anti-bacterial activity) ([6]; strain MSSE 14-1): 1 mg/L (≈ 2.42 µM)
MIC (anti-bacterial activity) ([6]; strain MSSE 14-2): 1 mg/L (≈ 2.42 µM)
MIC (anti-bacterial activity) ([6]; strain MSSE 14-3): 0.5 mg/L (≈ 1.21 µM)
MIC (anti-bacterial activity) ([6]; strain MSSE 14-4): 1 mg/L (≈ 2.42 µM)
inhibition at 30 µM [7]: 13%
MetHb % (n = 3) [8]: 1.22 ± 0.02%
MIC (the test strains): 0.5 to 2 mg/L (≈ 1.21 to 4.84 µM)

O=C(C[C@@H](CC1CCCC1)C(=O)N1CC2(CC2)C[C@H]1c1nc2ccccc2[nH]1)NO [Example 75, (R)-4-((S)-6-(1H-benzimidazol-2-yl)-5-azaspiro[2.4]heptane-5-yl)-3-(cyclopentylmethyl)-N-hydroxy-4-oxobutanamide]
Anti-bacterial activity (MIC) ([1]; strain EFA 15-1): > 32 mg/L
Anti-bacterial activity (MIC) ([1]; strain EFA 15-2): > 32 mg/L
Anti-bacterial activity (MIC) ([1]; strain EFA 15-3): > 32 mg/L
Anti-bacterial activity (MIC) ([1]; strain EFA 15-4): > 32 mg/L
Anti-bacterial activity (MIC) ([1]; strain EFA 15-5): > 32 mg/L
Anti-bacterial activity (MIC) ([1]; strain EFA 15-6): > 32 mg/L
Anti-bacterial activity (MIC) ([1]; strain EFA 15-9): > 32 mg/L
Anti-bacterial activity (MIC) ([9]; strain EFM 15-1): > 32 mg/L
Anti-bacterial activity (MIC) ([9]; strain EFM 15-2): > 32 mg/L
Anti-bacterial activity (MIC) ([9]; strain EFM 15-3): > 32 mg/L
Anti-bacterial activity (MIC) ([9]; strain EFM 15-4): 2 mg/L
Anti-bacterial activity (MIC) ([9]; strain EFM 15-5): 2 mg/L
Anti-bacterial activity (MIC) ([9]; strain EFM 15-6): 2 mg/L
Anti-bacterial activity (MIC), strain ECO+ 15-1 ([2]; clinical isolate ECO+ 15-1): 16 mg/L
Anti-bacterial activity (MIC), strain ECO+ 15-2 ([2]; clinical isolate ECO+ 15-2): 32 mg/L
Anti-bacterial activity (MIC), strain ECO+ 15-3 ([2]; clinical isolate ECO+ 15-3): 32 mg/L
Anti-bacterial activity (MIC), strain ECO+ 15-4 ([2]; clinical isolate ECO+ 15-4): 16 mg/L
Anti-bacterial activity (MIC), strain ECO− 15-1 ([2]; clinical isolate ECO− 15-1): 16 mg/L
Anti-bacterial activity (MIC), strain ECO− 15-2 ([2]; clinical isolate ECO− 15-2): 32 mg/L
Anti-bacterial activity (MIC), strain ECO− 15-3 ([2]; clinical isolate ECO− 15-3): 32 mg/L
Anti-bacterial activity (MIC), strain ECO− 15-4 ([2]; clinical isolate ECO− 15-4): 32 mg/L
Anti-bacterial activity (MIC) ([10]; strain BCA 14-1): 4 mg/L
Anti-bacterial activity (MIC) ([10]; strain BCA 14-4): 8 mg/L
Anti-bacterial activity (MIC) ([10]; strain BCA 14-5): 2 mg/L
Anti-bacterial activity (MIC) ([10]; strain BCA 14-6): 8 mg/L
Anti-bacterial activity (MIC) ([10]; strain BCA 14-7): 4 mg/L
Anti-bacterial activity (MIC) ([10]; strain BCA 14-8): 4 mg/L
Anti-bacterial activity (MIC) ([10]; strain BCA 14-10): 2 mg/L
Anti-bacterial activity (MIC) ([11]; strain SPN 16-2): 1 mg/L
Anti-bacterial activity (MIC) ([11]; strain SPN 16-4): 0.5 mg/L
Anti-bacterial activity (MIC), strain MRSA 15-1 ([3]; clinical isolate MRSA 15-1): 1 mg/L
Anti-bacterial activity (MIC), strain MRSA 15-2 ([3]; clinical isolate MRSA 15-2): 2 mg/L
Anti-bacterial activity (MIC), strain MRSA 15-3 ([3]; clinical isolate MRSA 15-3): 1 mg/L
Anti-bacterial activity (MIC), strain MRSA 15-4 ([3]; clinical isolate MRSA 15-4): 1 mg/L
Anti-bacterial activity (MIC), strain MRSE 15-1 ([4]; clinical isolate MRSE 15-1): 1 mg/L
Anti-bacterial activity (MIC), strain MRSE 15-2 ([4]; clinical isolate MRSE 15-2): 2 mg/L
Anti-bacterial activity (MIC), strain MRSE 15-3 ([4]; clinical isolate MRSE 15-3): 4 mg/L
Anti-bacterial activity (MIC), strain MRSE 15-7 ([4]; clinical isolate MRSE 15-7): 4 mg/L
Anti-bacterial activity (MIC), strain MSSA 15-3 ([5]; clinical isolate MSSA 15-3): 2 mg/L
Anti-bacterial activity (MIC), strain MSSA 15-4 ([5]; clinical isolate MSSA 15-4): 0.5 mg/L
Anti-bacterial activity (MIC), strain MSSA 15-5 ([5]; clinical isolate MSSA 15-5): 0.5 mg/L
Anti-bacterial activity (MIC), strain MSSA 15-6 ([5]; clinical isolate MSSA 15-6): 16 mg/L
Anti-bacterial activity (MIC), strain MSSE 15-3 ([6]; clinical isolate MSSE 15-3): 1 mg/L
Anti-bacterial activity (MIC), strain MSSE 15-4 ([6]; clinical isolate MSSE 15-4): 1 mg/L
Anti-bacterial activity (MIC), strain MSSE 15-5 ([6]; clinical isolate MSSE 15-5): 1 mg/L
Anti-bacterial activity (MIC), strain MSSE 15-6 ([6]; clinical isolate MSSE 15-6): 0.5 mg/L
inhibition at 30 µM [7]: > 50%
HCT116 inhibition rate/% ([7]; 30 µM): 59%
inhibition at 30 µM [12]: 45%
inhibition at 30 µM ([13]; Homo sapiens, Bel-7402, 72 h): > 50%
Inhibition of proliferation, Liver cancer BEL-7402 ([13]; 72 hours, 30 µM): 70%
inhibition at 30 µM ([14]; Homo sapiens, MGC-803, 72 h): > 50%
Inhibition of proliferation, Gastric cancer MGC-803 ([14]; 72 hours, 30 µM): 51%
MIC (the test strains): 0.5 to 2 mg/L (≈ 1.22 to 4.87 µM)
